Assay results taken from patent US6908931B2, “Tetrahydroisoquinoline derivatives as melatonin MT2 antagonists” (Bristol-Myers Squibb Company, priority 2003, dated 2005).

Molecular target: T1, human MT2 receptor (Homo sapiens, UniProt P49286)
T1 construct: melatonin MT1 and MT2 receptors cDNA were individually subcloned into pcDNA3 and introduced into NIH-3T3 cells using Lipofectamine; expressed in transfected cells
T1 sequence (P49286 1-362): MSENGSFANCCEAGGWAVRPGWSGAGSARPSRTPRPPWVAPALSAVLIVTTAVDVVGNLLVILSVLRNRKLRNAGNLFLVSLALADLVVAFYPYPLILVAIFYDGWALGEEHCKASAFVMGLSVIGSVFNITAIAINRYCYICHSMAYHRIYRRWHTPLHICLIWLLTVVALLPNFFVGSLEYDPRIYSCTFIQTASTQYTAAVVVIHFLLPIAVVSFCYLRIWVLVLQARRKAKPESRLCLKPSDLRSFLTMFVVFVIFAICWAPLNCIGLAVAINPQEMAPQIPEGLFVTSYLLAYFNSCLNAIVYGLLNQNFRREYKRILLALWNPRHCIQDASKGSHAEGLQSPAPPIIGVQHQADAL
Experiment: Melatonin receptor binding assay (MT2), 2-[125I]-iodomelatonin
Conditions: membrane homogenates of NIH-3T3 cells expressing MT2; 2-[125I]-iodomelatonin 0.2 nM; 37° C., 1 hour; read-out: MT2 IC50
Method: Melatonin receptor binding assay.
Membrane homogenates: melatonin MT1 and MT2 receptors cDNA were individually subcloned into pcDNA3 and introduced into NIH-3T3 cells using Lipofectamine. […] For preparing membrane homogenates, pellets are thawed on ice, and re-suspended in TME buffer in the presence of 10 μg/ml aprotinin and leupeptin, and 100 μM phenylmethylsulfonylfluoride. The cells were then homogenized using a dounce homogenizer, and centrifuged. The resulting pellet was re-suspended with dounce homogenizer in TME (supplemented with the above protease inhibitors) and frozen. On the day of assay, a small aliquot was thawed on ice and re-suspended in the ice cold TME (1:50-1:100 v/v) and held on ice until assayed. Incubation is at 37° C. for 1 hour. Reaction is terminated by filtration. Filters were washed 3 times.

Row | IC50 [µM] | SMILES
1 | 0.1 to 1 | COc1cc2c(cc1Br)CCN(C(=O)COc1ccccc1)C2CC(c1ccccc1)c1ccccc1 (stereo not drawn) [Example 31]
2 | 0.1 to 1 | COc1cc2c(cc1OC)C(CC(c1ccccc1)c1ccccc1)N(C(=O)c1cccs1)CC2 (stereo not drawn) [Example 13]
3 | 0.1 to 1 | COc1cc2c(cc1OC)C(CCc1ccccc1)N(C(=O)c1cccc([N+](=O)[O-])c1)CC2 (stereo not drawn) [Example 65]
4 | < 0.1 | CCC(=O)N1CCc2ccc(OC)cc2C1CCc1ccc(F)cc1 (stereo not drawn) [Example 119]
5 | 0.1 to 1 | CC(C)(C)CC(=O)N1CCc2cc3c(cc2C1CCc1ccc(F)cc1)OCO3 (stereo not drawn) [Example 107]
6 | 0.1 to 1 | COc1cc2c(cc1OC)C(CCc1ccccc1)N(C(=O)c1ccc(C(F)(F)F)cc1)CC2 (stereo not drawn) [Example 70]
7 | 0.1 to 1 | COc1ccc(C(=O)N2CCc3ccc(OC)cc3C2CCc2ccc(F)cc2)cc1 (stereo not drawn) [Example 111]
8 | 0.1 to 1 | COc1cc2c(cc1OC)C(CC(c1ccccc1)c1ccccc1)N(C(=O)c1ccccc1)CC2 (stereo not drawn) [Example 6, N-benzoyl 1-(2,2-diphenyleth-1-yl)-6,7-dimethoxy-1,2,3,4-tetrahydroisoquinoline]
9 | < 0.1 | COc1cc2c(cc1OC)C(CC(c1ccccc1)c1ccccc1)N(S(C)(=O)=O)CC2 (stereo not drawn) [Example 12]
10 | 0.1 to 1 | O=C(C=Cc1ccccc1)N1CCc2cc3c(cc2C1CCc1ccc(Cl)cc1)OCO3 (stereo not drawn) [Example 150]
11 | 0.1 to 1 | CC(C)(C)CC(=O)N1CCc2cc3c(cc2C1CCc1ccc(Cl)cc1)OCO3 (stereo not drawn) [Example 149]
12 | 0.1 to 1 | COc1ccc2c(c1)C(CCc1ccc(F)cc1)N(C(=O)OCc1ccccc1)CC2 (stereo not drawn) [Example 114]
13 | 0.1 to 1 | COc1cc2c(cc1OC)C(CCc1ccccc1)N(C(N)=O)CC2 (stereo not drawn) [Example 16]
14 | 0.1 to 1 | CC(C)COC(=O)N1CCc2cc3c(cc2C1CCc1ccc(Cl)cc1)OCO3 (stereo not drawn) [Example 148]
15 | 0.1 to 1 | COc1cc2c(cc1OC)C(CCc1ccccc1)N(C(=O)c1cccc(C)c1)CC2 (stereo not drawn) [Example 67]
16 | 0.1 to 1 | COc1cc2c(cc1OC)C(CCc1ccccc1)N(C(=O)Cc1ccccc1)CC2 (stereo not drawn) [Example 68]
17 | 0.1 to 1 | COc1cc2c(cc1Br)CCN(C(=O)C1CCC1)C2CC(c1ccccc1)c1ccccc1 (stereo not drawn) [Example 32]
18 | 0.1 to 1 | O=C(c1ccccc1)N1CCc2cc3c(cc2C1CCc1ccc(Cl)cc1)OCO3 (stereo not drawn) [Example 137]
19 | 0.1 to 1 | CCCCCCC(=O)N1CCc2cc(OC)c(OC)cc2C1CC(c1ccccc1)c1ccccc1 (stereo not drawn) [Example 45]
20 | 0.1 to 1 | CC(=O)OCC(=O)N1CCc2cc3c(cc2C1CCc1ccc(Cl)cc1)OCO3 (stereo not drawn) [Example 146]
21 | < 0.1 | COc1cc2c(cc1OC)C(CCc1ccccc1)N(C=O)CC2 (stereo not drawn) [Example 15]
22 | < 0.1 | COc1cc2c(cc1OC)C(CC(c1ccccc1)c1ccccc1)N(C=O)CC2 (stereo not drawn) [Example 2, N-formyl 1-(2,2-diphenyleth-1-yl)-6,7-dimethoxy-1,2,3,4-tetrahydroisoquinoline]

Row | IC50 [µM] | SMILES
23 | < 0.1 | COc1cc2c(cc1OC)C(CCc1ccccc1)N(C(=O)c1ccco1)CC2 (stereo not drawn) [Example 55]
24 | < 0.1 | COc1cc2c(cc1OC)C(CCc1ccccc1)N(C(C)=O)CC2 (stereo not drawn) [Example 14]
25 | < 0.1 | CCC(=O)N1CCc2cc(OC)c(OC)cc2C1CCc1cccc(OC)c1 (stereo not drawn) [Example 87]
26 | < 0.1 | COc1cccc(CCC2c3cc(OC)c(OC)cc3CCN2C(C)=O)c1 (stereo not drawn) [Example 86]
27 | 0.1 to 1 | COc1cc2c(cc1OC)C(CC1c3ccccc3-c3ccccc31)N(C(C)=O)CC2 (stereo not drawn) [Example 26]
28 | 0.1 to 1 | CC(=O)N1CCc2cc3c(cc2C1CCc1ccc(F)cc1)OCO3 (stereo not drawn) [Example 94]
29 | < 0.1 | COc1cc2c(cc1OC)C(CCc1ccccc1)N(C(=O)C1CCC1)CC2 (stereo not drawn) [Example 57]
30 | 0.1 to 1 | COc1ccc2c(c1)C(CC(c1ccccc1)c1ccccc1)N(C(=O)CC(C)(C)C)CC2 (stereo not drawn) [Example 78]
31 | < 0.1 | COc1ccc2c(c1)C(CCc1ccc(F)cc1)N(C(=O)C1CC1)CC2 (stereo not drawn) [Example 109]
32 | < 0.1 | O=C(C1CC1)N1CCc2cc3c(cc2C1CCc1ccc(F)cc1)OCO3 (stereo not drawn) [Example 95]
33 | < 0.1 | COC(=O)N1CCc2cc(OC)c(OC)cc2C1CC(c1ccccc1)c1ccccc1 (stereo not drawn) [Example 10, N-carbomethoxy 1-(2,2-diphenyleth-1-yl)-6,7-dimethoxy-1,2,3,4-tetrahydroisoquinoline]
34 | 0.1 to 1 | CC(=O)OCC(=O)N1CCc2cc3c(cc2C1CCc1ccc(F)cc1)OCO3 (stereo not drawn) [Example 104]
35 | 0.1 to 1 | COc1cc2c(cc1Br)CCN(C(=O)C1CCCCC1)C2CC(c1ccccc1)c1ccccc1 (stereo not drawn) [Example 33]
36 | < 0.1 | O=C(C1CC1)N1CCc2cc3c(cc2C1CCc1ccc(Cl)cc1)OCO3 (stereo not drawn) [Example 139]
37 | < 0.1 | CCNC(=O)N1CCc2cc(OC)c(OC)cc2C1CCc1cccc(OC)c1 (stereo not drawn) [Example 88]
38 | 0.1 to 1 | COc1cc2c(cc1OC)C(CCc1ccccc1)N(C(=O)c1ccc([N+](=O)[O-])cc1)CC2 (stereo not drawn) [Example 66]
39 | < 0.1 | O=C(C1CCCC1)N1CCc2cc3c(cc2C1CCc1ccc(F)cc1)OCO3 (stereo not drawn) [Example 102]
40 | 0.1 to 1 | COc1cc2c(cc1Br)CCN(C(=O)c1ccco1)C2CC(c1ccccc1)c1ccccc1 (stereo not drawn) [Example 30]
41 | < 0.1 | CCCC(=O)N1CCc2cc3c(cc2C1CCc1ccc(Cl)cc1)OCO3 (stereo not drawn) [Example 144]
42 | < 0.1 | CCCC(=O)N1CCc2ccc(OC)cc2C1CCc1ccc(F)cc1 (stereo not drawn) [Example 115]
43 | 0.1 to 1 | O=C(c1ccno1)N1CCc2cc3c(cc2C1CCc1ccc(Cl)cc1)OCO3 (stereo not drawn) [Example 145]
44 | 0.1 to 1 | COc1ccc2c(c1)C(CC(c1ccccc1)c1ccccc1)N(C(=O)c1cc(C(F)(F)F)cc(C(F)(F)F)c1)CC2 (stereo not drawn) [Example 83]

Row | IC50 [µM] | SMILES
45 | < 0.1 | COc1cc2c(c(OC)c1)C(CC(c1ccccc1)c1ccccc1)N(C(C)=O)CC2 (stereo not drawn) [Example 21]
46 | 0.1 to 1 | COc1cc2c(cc1OC)C(CC(c1ccccc1)c1ccccc1)N(C(=O)c1ccc(C(F)(F)F)cc1)CC2 (stereo not drawn) [Example 54]
47 | < 0.1 | COc1ccc2c(c1)C(CC(c1ccccc1)c1ccccc1)N(C(C)=O)CC2 (stereo not drawn) [Example 20]
48 | 0.1 to 1 | O=C(OCc1ccccc1)N1CCc2cc3c(cc2C1CCc1ccc(Cl)cc1)OCO3 (stereo not drawn) [Example 143]
49 | 0.1 to 1 | COc1cc2c(cc1OC)C(CC(C)c1ccccc1)N(C(C)=O)CC2 (stereo not drawn) [Example 18]
50 | < 0.1 | O=C(c1ccno1)N1CCc2cc3c(cc2C1CCc1ccc(F)cc1)OCO3 (stereo not drawn) [Example 103]
51 | 0.1 to 1 | COc1ccc(C(=O)N2CCc3ccc(OC)cc3C2CC(c2ccccc2)c2ccccc2)cc1 (stereo not drawn) [Example 79]
52 | < 0.1 | COc1cc2c(cc1OC)C(CC(c1ccccc1)c1ccccc1)N(C(=O)C1CC1)CC2 (stereo not drawn) [Example 5, N-cyclopropylcarbonyl 1-(2,2-diphenyleth-1-yl)-6,7-dimethoxy-1,2,3,4-tetrahydroisoquinoline]
53 | 0.1 to 1 | COc1cc2c(cc1OC)C(CC(c1ccccc1)c1ccccc1)N(C(=O)C(F)(F)F)CC2 (stereo not drawn) [Example 7, N-trifluoroacetyl 1-(2,2-diphenyleth-1-yl)-6,7-dimethoxy-1,2,3,4-tetrahydroisoquinoline]
54 | 0.1 to 1 | COc1cc2c(cc1OC)C(CC(c1ccccc1)c1ccccc1)N(C(=O)c1ccco1)CC2 (stereo not drawn) [Example 41]
55 | < 0.1 | COc1cc2c(cc1OC)C(CC(c1ccccc1)c1ccccc1)N(C(C)=O)CC2 (stereo not drawn) [Example 1, N-acetyl 1-(2,2-diphenyleth-1-yl)-6,7-dimethoxy-1,2,3,4-tetrahydroisoquinoline]
56 | 0.1 to 1 | COc1ccc2c(c1)C(CCc1ccc(F)cc1)N(C(=O)CC(C)(C)C)CC2 (stereo not drawn) [Example 121]
57 | 0.1 to 1 | COc1ccc2c(c1)CCN(C(C)=O)C2CC(c1ccccc1)c1ccccc1 (stereo not drawn) [Example 17]
58 | 0.1 to 1 | COc1ccc2c(c1)C(CCc1ccc(F)cc1)N(C(=O)COC(C)=O)CC2 (stereo not drawn) [Example 118]
59 | 0.1 to 1 | CC(C)COC(=O)N1CCc2cc3c(cc2C1CCc1ccc(F)cc1)OCC3 (stereo not drawn) [Example 135]
60 | < 0.1 | CCCC(=O)N1CCc2cc3c(cc2C1CCc1ccc(F)cc1)OCO3 (stereo not drawn) [Example 101]
61 | 0.1 to 1 | COc1ccc2c(c1)C(CCc1ccc(F)cc1)N(C(=O)C=Cc1ccccc1)CC2 (stereo not drawn) [Example 122]
62 | 0.1 to 1 | COc1ccc2c(c1)C(CC(c1ccccc1)c1ccccc1)N(C(=O)c1cccc([N+](=O)[O-])c1)CC2 (stereo not drawn) [Example 80]
63 | 0.1 to 1 | COc1cc2c(cc1OC)C(CCc1ccccc1)N(C(=O)C(C)C)CC2 (stereo not drawn) [Example 59]
64 | 0.1 to 1 | CCCCCC(=O)N1CCc2cc(Br)c(OC)cc2C1CC(c1ccccc1)c1ccccc1 (stereo not drawn) [Example 34]
65 | < 0.1 | COc1ccc2c(c1)C(CCc1ccc(F)cc1)N(C(=O)C1CCCC1)CC2 (stereo not drawn) [Example 116]
66 | 0.1 to 1 | CC(=O)N1CCc2cc3c(cc2C1CCc1ccc(Cl)cc1)OCO3 (stereo not drawn) [Example 138]

Row | SMILES | IC50 [µM]
67 | O=C(CCl)N1CCc2cc3c(cc2C1CCc1ccc(Cl)cc1)OCO3 (stereo not drawn) [Example 142] | < 0.1
68 | O=C(C=Cc1ccccc1)N1CCc2cc3c(cc2C1CCc1ccc(F)cc1)OCO3 (stereo not drawn) [Example 108] | 0.1 to 1
69 | COC(=O)N1CCc2ccc(OC)cc2C1CCc1ccc(F)cc1 (stereo not drawn) [Example 113] | < 0.1
